Bounds are passed on as bounds.

Consider 38 compounds from ChEMBL document CHEMBL4483862, “Open-source discovery of chemical leads for next-generation chemoprotective antimalarials” (2018).

The test system of this assay is Plasmodium berghei. Kind of assay: Luciferase/luciferin-expressing antifolate-resistant parasites were used to infect a culture of HepG2 cells that were pre-incubated with compounds. Infected hepatocytes emit light due to the luciferase reaction. Assay results are presented as the percent inhibition of light emission compared to control. […]. Type of assay: functional. The note with it: sporozoite; for IC90: read-out: LUCIFERASE INFECTION ASSAY - IC90.

[1] abbreviates: read-out: LUCIFERASE INFECTION ASSAY - IC50.

For orientation: IC50 means the concentration that inhibits the measured activity by half. For orientation: IC90 means the concentration needed for an effect of 90%. For the compound `Cc1ccc2nc(NC(=O)c3ccc(Cl)cc3)c(C(=O)NC3CCCC3)n2c1`, the IC90 was determined as 3.09 µM. Further, under “HEPG2TOX_HILL_SLOPE 3.44, HEPG2TOX_R_SQUARED 0.175, PBLUC_HILL_SLOPE 15.5, PBLUC_R_SQUARED 0.331, read-out: LUCIFERASE INFECTION ASSAY - IC50”, the IC50 is 2.68 µM.
Consider `COc1cc(-c2ccc3ncc(-c4cccc(NC(C)=O)c4)n3n2)cc(OC)c1OC`, for which the IC90 was determined as 4.34 µM. The half-maximal inhibitory concentration (IC50) (HEPG2TOX_HILL_SLOPE 0.736, HEPG2TOX_R_SQUARED 0.983, PBLUC_HILL_SLOPE 1.49, PBLUC_R_SQUARED 0.582, read-out: LUCIFERASE INFECTION ASSAY - IC50) came out at 0.995 µM.
With `COc1ccc2[nH]cc(CCNC(=O)c3ccc(-c4cccc(NC(C)=O)c4)nc3NCc3cccnc3)c2c1`, the concentration for an effect of 90% (IC90) amounted to 5.13 µM. The concentration for half-maximal inhibition (IC50) (FFLUC_HILL_SLOPE 1.54, FFLUC_R_SQUARED 0.292, HEPG2TOX_HILL_SLOPE 0.912, HEPG2TOX_R_SQUARED 0.95, PBLUC_HILL_SLOPE 1.88, PBLUC_R_SQUARED 0.271, read-out: LUCIFERASE INFECTION ASSAY - IC50) is 1.59 µM.
`C/C(Cn1nnc(-c2ccc(C(F)(F)F)cc2)n1)=N\NC(N)=S`: the IC90 was found to be 3.45 µM. In addition, the IC50 (HEPG2TOX_HILL_SLOPE 10.9, HEPG2TOX_R_SQUARED 0.527, PBLUC_HILL_SLOPE 12.4, PBLUC_R_SQUARED 0.37, read-out: LUCIFERASE INFECTION ASSAY - IC50) was found to be 2.89 µM.
As to `Cc1ccccc1CN1CCN2C=C(C(=O)Nc3ccc(Oc4ccccc4)cc3)OC2=NC1=O`, the concentration for an effect of 90% (IC90) is more than 10 µM. Under setting [1], the IC50 was more than 10 µM.
For the compound `CN(C)c1cccc(-c2cnc3cnc(-c4ccc(CO)cc4)cn23)c1`, the concentration for an effect of 90% (IC90) was more than 9.58 µM. Besides, the concentration for half-maximal inhibition (IC50) (PBLUC_HILL_SLOPE 3.53, PBLUC_R_SQUARED 0.408, read-out: LUCIFERASE INFECTION ASSAY - IC50) was determined as 6.91 µM.
For `CNC(=O)c1cccc(NC(=O)c2cc(-c3ccco3)nc3c2cnn3C(C)C)c1`, the IC90 was more than 10 µM. The IC50 under setting [1] is more than 10 µM.
Consider `CCOC(=O)c1sc(-c2ccccc2)cc1NC(=O)COC(=O)c1c2c(nc3ccccc13)CCC(C)C2` (stereo unspecified), for which the concentration for an effect of 90% (IC90) is more than 10 µM. Moreover, the concentration for half-maximal inhibition (IC50) (FFLUC_HILL_SLOPE 0.238, FFLUC_R_SQUARED 0.508, read-out: LUCIFERASE INFECTION ASSAY - IC50) is more than 10 µM.
In the case of `COc1ccc(C)cc1NC(=O)c1ccc(NC(=O)Nc2ccccc2)s1`, the concentration for an effect of 90% (IC90) was more than 10 µM. For the same compound, the IC50 (PBLUC_HILL_SLOPE 2.41, PBLUC_R_SQUARED 0.229, read-out: LUCIFERASE INFECTION ASSAY - IC50) is 7.11 µM.
In the case of `COc1ccc(-n2c(C)cc(/C=C(\C#N)C(=O)NCc3nnc4ccccn34)c2C)cc1`, the 90% effect concentration (IC90) worked out at 9.17 µM. Further, the IC50 (PBLUC_HILL_SLOPE 14.5, PBLUC_R_SQUARED 0.61, read-out: LUCIFERASE INFECTION ASSAY - IC50) was determined as 7.88 µM.
With `CCCCn1c(N)c(N(C)CC(=O)Nc2scc(-c3ccccc3)c2C(=O)OCC)c(=O)[nH]c1=O`, the IC90 stood at 8.26 µM. The IC50 (FFLUC_HILL_SLOPE 12.3, FFLUC_R_SQUARED 0.419, PBLUC_HILL_SLOPE 4.64, PBLUC_R_SQUARED 0.375, read-out: LUCIFERASE INFECTION ASSAY - IC50) was 5.15 µM.
For the compound `CCOC(=O)C1=C(CN(C)C2CCCCC2)NC(=O)NC1`, the 90% effect concentration (IC90) is more than 10 µM. In addition, the IC50 under setting [1] was more than 10 µM.
Turning to `Cc1ccc(C)c(-n2nnnc2SCC(=O)NC(=O)NC23CC4CC(CC(C4)C2)C3)c1`, the IC90 turned out to be 9.88 µM. Besides, the IC50 (PBLUC_HILL_SLOPE 3.63, PBLUC_R_SQUARED 0.524, read-out: LUCIFERASE INFECTION ASSAY - IC50) turned out to be 5.39 µM.
Take `CC(=O)c1c(C)[nH]c(C(=O)CN(C)Cc2ccc(C(C)(C)C)cc2)c1C`: the IC90 was more than 10 µM. Besides, the IC50 under setting [1] was more than 10 µM.
Take `O=C(Nc1cccc2c[nH]nc12)c1cnc(OCC(F)(F)F)c(Cl)c1`: the concentration for an effect of 90% (IC90) is 5.53 µM. Where the note is “PBLUC_HILL_SLOPE 2.15, PBLUC_R_SQUARED 0.641, read-out: LUCIFERASE INFECTION ASSAY - IC50”, the IC50 turned out to be 1.99 µM.
Turning to `Cc1ccc(S(=O)(=O)N2c3ccc(S(N)(=O)=O)cc3CC2C)cc1` (stereo unspecified), the IC90 is more than 9.01 µM. The 50% inhibitory concentration (IC50) (PBLUC_HILL_SLOPE 2.71, PBLUC_R_SQUARED 0.472, read-out: LUCIFERASE INFECTION ASSAY - IC50) was found to be 4.01 µM.
For the compound `Cc1cc(C(=O)N/N=C/C(C)(C)C)nn1-c1ccc(C(C)C)cc1`, the concentration for an effect of 90% (IC90) was more than 10.1 µM. Moreover, the concentration for half-maximal inhibition (IC50) under setting [1] was more than 10.1 µM.
Take `O=C(NCCCn1ccc2ccccc21)Nc1ccc(Cl)c(Cl)c1`: the 90% effect concentration (IC90) was more than 10 µM. The 50% inhibitory concentration (IC50) under setting [1] was more than 10 µM.
Take `CCN(CC)S(=O)(=O)c1ccc(C(=O)c2c(C)c(C(=O)C(F)(F)F)c3ccccn23)cc1`: the concentration for an effect of 90% (IC90) is more than 10 µM. In addition, the IC50 under setting [1] is more than 10 µM.
Take `Cc1ccc(-n2ncc(C(=O)Nc3ccncc3)c2C2CC2)cc1Cl`: the 90% effect concentration (IC90) turned out to be 7.69 µM. The IC50 (HEPG2TOX_HILL_SLOPE 0.617, HEPG2TOX_R_SQUARED 0.925, PBLUC_HILL_SLOPE 1.2, PBLUC_R_SQUARED 0.513, read-out: LUCIFERASE INFECTION ASSAY - IC50) is 1.23 µM.
Turning to `CCOC(=O)c1cc(Sc2ccccc2NC(=O)Nc2ccc(C)cc2)cc(C(=O)OCC)n1`, the IC90 was more than 6.88 µM. For the same compound, the IC50 under setting [1] was more than 6.88 µM.
`O=C(Cn1c(=O)ccn(Cc2ccccc2)c1=O)N1CCC(n2c(=O)[nH]c3ccccc32)CC1`: the IC90 is more than 10 µM. For the same compound, the 50% inhibitory concentration (IC50) under setting [1] was more than 10 µM.
As for `O=C(Nc1ccc([N+](=O)[O-])cc1)n1nccc1-c1ccc(-c2cccs2)s1`, the IC90 is more than 8.32 µM. Further, under setting [1], the 50% inhibitory concentration (IC50) was determined as 7.77 µM.
`Cc1nn2c(=O)c(Cc3ccccc3Cl)c(C)[nH]c2c1-c1ccccc1`: the IC90 was determined as 2.97 µM. For the same compound, the IC50 under setting [1] amounted to 2.68 µM.
For `CC(C)Cn1c(=O)n(C)c(=O)c2c(SCC#N)nc(CC(C)(C)C)nc21`, in that order: more than 10 µM and more than 10 µM.
On to `CCOC(=O)Cc1csc(SCC(=O)c2cc(C)n(-c3ccc4c(c3)OCO4)c2C)n1`, for which the IC90 is more than 10 µM. Further, the IC50 (PBLUC_HILL_SLOPE 1.81, PBLUC_R_SQUARED 0.311, read-out: LUCIFERASE INFECTION ASSAY - IC50) is 4.63 µM.
Turning to `CSc1ccccc1NC(=O)CN1CCN(C(c2ccccc2)c2ccccc2)CC1`, the IC90 amounted to 6.36 µM. For the setting “HEPG2TOX_HILL_SLOPE 7.79, HEPG2TOX_R_SQUARED 0.752, PBLUC_HILL_SLOPE 3.88, PBLUC_R_SQUARED 0.663, read-out: LUCIFERASE INFECTION ASSAY - IC50”, the half-inhibitory concentration (IC50) was found to be 3.61 µM.
For the compound `Cc1cc(=O)nc(N/N=C/c2cc(C)n(-c3ccc(C)c(C)c3)c2C)[nH]1`, the concentration for an effect of 90% (IC90) was more than 10 µM. Where the note is “PBLUC_HILL_SLOPE 2.67, PBLUC_R_SQUARED 0.2, read-out: LUCIFERASE INFECTION ASSAY - IC50”, the IC50 stood at 9.4 µM.
For the compound `COc1c(Br)cc([N+](=O)[O-])c(OC)c1C(=O)NC(=O)Nc1cc(C(F)(F)F)cc(C(F)(F)F)c1`, the IC90 is 5.15 µM. Also, the 50% inhibitory concentration (IC50) (HEPG2TOX_HILL_SLOPE 8.68, HEPG2TOX_R_SQUARED 0.501, PBLUC_HILL_SLOPE 19.7, PBLUC_R_SQUARED 0.399, read-out: LUCIFERASE INFECTION ASSAY - IC50) is 4.61 µM.
Consider `O=C(Nc1ccc(F)cc1F)c1cc(Cl)cc(Cl)c1O`, for which the concentration for an effect of 90% (IC90) is more than 10.4 µM. Besides, the IC50 (PBLUC_HILL_SLOPE 2.53, PBLUC_R_SQUARED 0.435, read-out: LUCIFERASE INFECTION ASSAY - IC50) is 4.75 µM.
With `COc1cc(NC(=O)N2CCc3nc(Nc4cc(C)cc(C)c4)ncc3C2)cc(OC)c1OC`, the 90% effect concentration (IC90) is more than 7.12 µM. In addition, the IC50 (PBLUC_HILL_SLOPE 3.8, PBLUC_R_SQUARED 0.0984, read-out: LUCIFERASE INFECTION ASSAY - IC50) turned out to be 4.59 µM.
On to `CCCc1cc(=O)n2ncc(-c3ccc(Cl)cc3)c2[nH]1`, for which the concentration for an effect of 90% (IC90) was 3.65 µM. Besides, for the setting “HEPG2TOX_HILL_SLOPE 1.31, HEPG2TOX_R_SQUARED 0.875, PBLUC_HILL_SLOPE 1.68, PBLUC_R_SQUARED 0.622, read-out: LUCIFERASE INFECTION ASSAY - IC50”, the IC50 turned out to be 0.989 µM.
In the case of `Nc1cccc(-c2ccc3ncc(-c4cccc(C(F)(F)F)c4)n3n2)c1`, the 90% effect concentration (IC90) came to 2.09 µM. The IC50 under setting [1] was determined as 1.48 µM.
Consider `CCCCNC(=O)c1c(NC(=O)c2ccc(F)c(F)c2)nc2ccc(C)cn12`, for which the IC90 turned out to be 3.54 µM. In addition, the half-inhibitory concentration (IC50) (FFLUC_HILL_SLOPE 0.0723, FFLUC_R_SQUARED 0.0194, HEPG2TOX_HILL_SLOPE 0.765, HEPG2TOX_R_SQUARED 0.862, PBLUC_HILL_SLOPE 1.87, PBLUC_R_SQUARED 0.784, read-out: LUCIFERASE INFECTION ASSAY - IC50) amounted to 1.09 µM.
Regarding `c1ccc(-c2cn3nc(NCc4ccccc4CN4CCOCC4)sc3n2)cc1`, the IC90 was more than 10 µM. For the same compound, the IC50 under setting [1] was 1.28 µM.
Turning to `Cc1ccc(-c2nn(-c3ccccc3)cc2/C=N/Nc2ncnc(N)c2[N+](=O)[O-])o1`, the concentration for an effect of 90% (IC90) worked out at 1.28 µM. Further, the IC50 (FFLUC_HILL_SLOPE 2.88, FFLUC_R_SQUARED 0.103, HEPG2TOX_HILL_SLOPE 0.791, HEPG2TOX_R_SQUARED 0.887, PBLUC_HILL_SLOPE 4.72, PBLUC_R_SQUARED 0.877, read-out: LUCIFERASE INFECTION ASSAY - IC50) came to 0.806 µM.
As to `COc1ccc2cc(CN(C)CC(=O)Nc3sccc3C(N)=O)ccc2c1`, the IC90 worked out at 4.94 µM. In addition, under “HEPG2TOX_HILL_SLOPE 0.237, HEPG2TOX_R_SQUARED 0.621, PBLUC_HILL_SLOPE 9.54, PBLUC_R_SQUARED 0.647, read-out: LUCIFERASE INFECTION ASSAY - IC50”, the IC50 was 3.92 µM.
On to `Cc1ccc(-c2nn(CN(C)CC(=O)NC(C)C)c(=S)n2C)cc1`, for which the IC90 is more than 10 µM. In addition, the IC50 under setting [1] is more than 10 µM.
